As usually defined, the IC50 is the concentration at which inhibition is half-maximal. What is called inhibition is the change of the read-out against control, counted positive when it falls.

The target in assay [1] is T1, aldosterone synthase (Homo sapiens, UniProt P19099).
T1 construct: host or cells: NCI-H295R
T1 sequence (P19099 25-503): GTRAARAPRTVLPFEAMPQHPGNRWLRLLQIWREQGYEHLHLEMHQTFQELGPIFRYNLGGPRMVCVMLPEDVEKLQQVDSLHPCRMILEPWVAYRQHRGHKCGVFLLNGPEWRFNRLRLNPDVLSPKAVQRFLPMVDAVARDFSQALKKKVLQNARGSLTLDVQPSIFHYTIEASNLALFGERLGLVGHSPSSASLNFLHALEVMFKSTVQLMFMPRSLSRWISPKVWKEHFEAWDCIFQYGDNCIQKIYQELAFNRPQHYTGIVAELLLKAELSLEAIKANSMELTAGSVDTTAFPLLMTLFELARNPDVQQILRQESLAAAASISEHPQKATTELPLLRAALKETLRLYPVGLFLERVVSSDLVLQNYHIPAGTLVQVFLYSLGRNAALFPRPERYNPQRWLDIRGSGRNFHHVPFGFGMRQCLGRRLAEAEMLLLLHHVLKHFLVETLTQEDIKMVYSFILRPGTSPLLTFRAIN
Briefly: Aldosterone cell secretion in Ang II-stimulated NCI-H295R cells (SPA with anti-aldosterone antibody). The following applies: human adrenocortical carcinoma NCI-H295R cells, 1 μM Ang II, 24 h. Format: cell-based. An excerpt: In particular, the aldosterone synthase inhibitory activities in vitro can be determined by the following assay.
Human adrenocortical carcinoma NCI-H295R cell line was obtained from American Type Culture Collection (Manassas, Va.). Insulin/transferrin/selenium (ITS)-A supplement (100×), DMEM/F-12, antibiotic/antimycotic (100×), and fetal bovine serum (FBS) were purchased from Invitrogen (Carlsbad, Calif.). Anti-mouse PVT scintillation proximity assay (SPA) beads and NBS 96-well plates were obtained from GE Health Sciences (Piscataway, N.J.) and Corning (Acton, Mass.), respectively. Solid black 96-well flat bottom plates were purchased from Costar (Corning, N.Y.). Aldosterone and angiotensin (Ang II) were purchased from Sigma (St. Louis, Mo.). D-[1,2,6,7-^3H(N)]aldosterone was acquired from PerkinElmer (Boston, Mass.). Nu-serum was a product of BD Biosciences (Franklin Lakes, N.J.).
On the following day, cells are rinsed with 100 μL of phosphate-buffered saline (PBS) and incubated with 100 μL of treatment medium containing 1 μM Ang II and a compound at different concentrations in quadruplicate wells at 37° C. for 24 h. At the end of incubation, 50 μL of medium is withdrawn from each well for measurement of aldosterone production by an SPA using mouse anti-aldosterone monoclonal antibodies.
Measurement of aldosterone activity can also be performed using a 96-well plate format. […] Anti-mouse PVT SPA beads (50 μL) are then added to each well and incubated overnight at room temperature prior to counting in a Microbeta plate counter. The amount of aldosterone in each sample is calculated by comparing with a standard curve generated using known quantities of the hormone.
(§1) Inhibition of the release of certain steroids can be used as a measure of the respective enzyme inhibition by the added test compounds. The dose-dependent inhibition of enzymatic activity by a compound is calculated by means of an inhibition plot which is characterized by an IC50.
The inhibition plot is calculated by fitting a 4-parameter logistic function to the raw data points using the least squares method. The equation of the 4-parameter logistic function is calculated as follows: Y=(d−a)/((1+(x/c)b))+a, where: a=minimum data level, b=gradient, I […], d=maximum data level, x=inhibitor concentration.

Assay [2] has as its target T2, CYP11B1 (steroid 11 β-hydroxylase) (Homo sapiens, UniProt P15538).
T2 construct: the NCI-H295R cells have CYP11B1 (steroid 11 β-hydroxylase); host or cells: NCI-H295R
T2 sequence (P15538 25-503): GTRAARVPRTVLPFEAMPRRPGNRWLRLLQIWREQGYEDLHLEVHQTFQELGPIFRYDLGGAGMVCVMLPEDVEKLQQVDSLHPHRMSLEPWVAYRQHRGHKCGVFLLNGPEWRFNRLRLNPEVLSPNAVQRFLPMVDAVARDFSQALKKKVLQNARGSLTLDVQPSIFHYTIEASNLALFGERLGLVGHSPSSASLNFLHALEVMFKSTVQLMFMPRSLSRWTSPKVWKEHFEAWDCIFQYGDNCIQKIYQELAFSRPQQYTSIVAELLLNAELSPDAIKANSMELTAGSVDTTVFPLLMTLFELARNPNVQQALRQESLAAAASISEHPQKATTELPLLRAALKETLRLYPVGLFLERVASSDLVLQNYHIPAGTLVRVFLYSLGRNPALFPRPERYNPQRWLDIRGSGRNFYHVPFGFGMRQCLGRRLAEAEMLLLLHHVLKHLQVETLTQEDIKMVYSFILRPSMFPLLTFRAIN
Briefly: Cortisol cell secretion in NCI-H295R cells (in vitro inhibitory activity for CYP11B1). The following applies: compound at 1 μM; for inhibition at 1 µM: NCI-H295R. Format: cell-based.
Text: The in vitro inhibitory activities for CYP11B1 can be determined by the following assay.
The cell line NCI-H295R was originally isolated from an adrenocortical carcinoma and has been characterized in the literature through the stimulable secretion of steroid hormones and the presence of the enzymes essential for steroidogenesis. Thus, the NCI-H295R cells have CYP11B1 (steroid 11 β-hydroxylase). The cells show the physiological property of zonally undifferentiated human fetal adrenocortical cells which, however, have the capacity to produce the steroid hormones which are formed in the three, phenotypically distinguishable zones in the adult adrenal cortex.
The NCI-H295R cells (American Type Culture Collection, ATCC, Rockville, Md., USA) are grown in Dulbeoco's Modified Eagle'Ham F-12 Medium (DME/F12), which has been supplemented with Ulroser SF Serum (Soprachem, Cergy-Saint-Christophe, France), insulin, transferrin, selenite (I-T-S, Becton Dickinson Biosiences, Franklin lakes, N.J., USA) and antibiotics in 75 cm^2 cell culture vessels at 37° C. and in a 95% air-5% carbon dioxide atmosphere. The cells are subsequently transferred for colony formation into a 24-well incubation vessel. They are cultivated there in DME/F12 medium, which is now supplemented with 0.1% bovine serum instead of Ultroser SF for 24 hours. The experiment is initiated by cultivating the cells in DME/F12 medium which is supplemented with 0.1% bovine serum albumin and test compound, in the presence or absence of cell stimulants, for 72 hours. The test substance is added in a concentration range from 0.2 nanomolar to […]. Cell stimulants which can be used are angiotensin II ([…] or 100 nanomolar), potassium ions (16 millimolar), forskolin (10 micromolar) or a combination of two stimulants.
The excretion of aldosterone, cortisol, corticosterone and estradiol/estrone into the culture medium can be detected and quantified by commercially available, specific monoclonal antibodies in radioimmunoassays in accordance with the manufacturer's instructions.
as §1
The inhibition activity of CYP11B1 production can also be expressed in percentage inhibition (% inhibition) at a given concentration (e.g. % inhibition at 1 μM), which is the cortisol level when cell is treated with the given concentration of a compound of the invention (e.g. concentration of 1 μM) versus the cortisol excretion when cell is free of the compound of the invention. % inhibition cortisol production=[(Y′−X′)/Y′]×100 wherein X′ is the level of cortisol when the cell is treated with a compound of Formula I; and Y′ is the level of cortisol when the cell is free of compound of Formula I.

In assay [1], `COc1ccc(S(=O)(=O)Nc2cncc(-c3ccc(C#N)c(Cl)c3)c2)cc1` [N-[5-(3-Chloro-4-cyano-phenyl)-pyridin-3-yl]-4-methoxy-benzene-sulfonamide] gave an IC50 of 9 nM. Moreover, in assay [2], the inhibition at 1 µM turned out to be 74.5%.

Regarding `CCS(=O)(=O)N(C)C(c1cncc(-c2ccc(C#N)c(Cl)c2)c1)C1CC1` (centres unmarked) [N-((5-(3-chloro-4-cyanophenyl)pyridin-3-yl)(cyclopropyl)methyl)-N-methylethanesulfonamide], half-maximal inhibition in assay [1] (IC50) required 5 nM. Besides, the inhibition at 1 µM in assay [2] came to 63%.

On to `CCS(=O)(=O)NC(c1ccc(F)cc1)c1cncc(-c2ccc(C#N)c(C)c2)c1` (centres unmarked) [N-(5-(4-cyano-3-methylphenyl)pyridin-3-yl)(4-fluorophenyl)methyl)ethane-sulfonamide], for which it took 121 nM to reach half-maximal inhibition in assay [1] (IC50). The inhibition at 1 µM in assay [2] was 23%.

In the case of `COc1cc(-c2cncc(NS(=O)(=O)C3CC3)c2)ccc1C#N` [N-(5-(4-cyano-3-methoxyphenyl)pyridin-3-yl)cyclopropane-sulfonamide], in assay [1], the IC50 amounted to 77 nM. In assay [2], the inhibition at 1 µM is 32%.

In turn, `CCS(=O)(=O)NC(c1cncc(-c2ccc(F)c(Cl)c2)c1)C1CC1` (centres unmarked) [N-((5-(3-chloro-4-fluorophenyl)pyridin-3-yl)(cyclopropyl)methyl)-ethanesulfonamide] displayed an IC50 in assay [1] of 22 nM. Further, in assay [2], the inhibition at 1 µM came out at 21%.

In assay [1], `CCCC(NS(=O)(=O)CC)c1cncc(-c2ccc(C#N)c(Cl)c2)c1` (single isomer, unassigned) [N-(1-(5-(3-chloro-4-cyanophenyl)pyridin-3-yl)butyl)ethanesulfonamide] registered an IC50 of 89 nM. Further, in assay [2], the inhibition at 1 µM stood at 26%.

Turning to `CCCC(NS(=O)(=O)CC)c1cncc(-c2ccc(C#N)c(Cl)c2)c1` (racemic) [N-(1-(5-(3-chloro-4-cyanophenyl)pyridin-3-yl)butyl)ethanesulfonamide: Racemate, N-(1-(5-(3-chloro-4-cyanophenyl)pyridin-3-yl)butyl)ethanesulfonamide], the midpoint of inhibition in assay [1], the IC50, lay at 132 nM. Further, the inhibition at 1 µM in assay [2] was 25%.

As to `CCS(=O)(=O)NC(C)c1cncc(-c2ccc(C#N)c(Cl)c2)c1` (single isomer, unassigned) [N-(1-(5-(3-chloro-4-cyanophenyl)pyridin-3-yl)ethyl)ethanesulfonamide], the IC50 in assay [1] (Enantiomer 1) was determined as 49 nM; in assay [1] (Enantiomer 2), 74 nM. Besides, in assay [2], the inhibition at 1 µM came to 53%.

`N#Cc1ccc(-c2cncc(CN3CCCS3(=O)=O)c2)cc1Cl` [2-Chloro-4-[5-(1,1-dioxo-isothiazolidin-2-ylmethyl)-pyridin-3-yl]-benzonitrile]: the IC50 in assay [1] stood at 12 nM. Besides, the inhibition at 1 µM in assay [2] was 64%.

In the case of `CCc1ccc(S(=O)(=O)Nc2cncc(-c3ccc(C#N)c(Cl)c3)c2)cc1` [N-[5-(3-Chloro-4-cyano-phenyl)-pyridin-3-yl]-4-ethyl-benzene-sulfonamide], in assay [1], the IC50 came to 6 nM. In addition, in assay [2], the inhibition at 1 µM was determined as 78%.

Take `CCS(=O)(=O)NC(c1cncc(-c2cccc(Cl)c2Cl)c1)C1CC1` (centres unmarked) [N-(cyclopropyl(5-(2,3-dichlorophenyl)pyridin-3-yl)methyl)ethanesulfonamide]: in assay [1], half-maximal inhibition (IC50) required 5 nM. Further, the inhibition at 1 µM in assay [2] was 39%.

On to `CCS(=O)(=O)NC(C)c1cncc(-c2ccc(C#N)c(OC)c2)c1` (single isomer, unassigned) [N-(1-(5-(4-cyano-3-methoxyphenyl)pyridin-3-yl)ethyl)ethanesu] [N-(1-(5-(4-cyano-3-methoxyphenyl)pyridin-3-yl)ethyl)ethanesulfonamide], for which, in assay [2], the “Cortisol cell secretion (% inhibition @ 1 μM)” value amounted to 27%.

As to `N#Cc1ccc(-c2cncc(NS(=O)(=O)Cc3ccccc3Cl)c2)cc1Cl` [N-(5-(3-chloro-4-cyanophenyl)pyridin-3-yl)-1-(2-chlorophenyl)methanesulfonamide], the IC50 in assay [1] came to 45 nM. Further, the inhibition at 1 µM in assay [2] is 34%.

The molecule `CCS(=O)(=O)N[C@@H](c1cncc(-c2ccc(C#N)c(Cl)c2)c1)C1CC1` [(R)-N-((5-(3-chloro-4-cyanophenyl)pyridin-3-yl)(cyclopropyl)methyl)ethanesulfonamide] gave an IC50 in assay [1] of 56 nM. Besides, the inhibition at 1 µM in assay [2] amounted to 29%.

Turning to `CCS(=O)(=O)NC(C)c1cncc(-c2ccc(C#N)c(Cl)c2)c1` (single isomer, unassigned) [N-(1-(5-(3-chloro-4-cyanophenyl)pyridin-3-yl)ethyl)ethanesul] [N-(1-(5-(3-chloro-4-cyanophenyl)pyridin-3-yl)ethyl)ethanesulfonamide], the “Cortisol cell secretion (% inhibition @ 1 μM)” value in assay [2] was 50%.

In assay [1], `CCS(=O)(=O)NC(c1cncc(-c2ccc(C#N)cc2F)c1)C1CC1` (centres unmarked) [N-(5-(4-cyano-2-fluorophenyl)pyridin-3-yl)(cyclopropyl)methyl)ethanesulfonamide] yielded an IC50 of 167 nM. For the same molecule, the inhibition at 1 µM in assay [2] turned out to be 39%.

With `CCS(=O)(=O)NC(c1cncc(-c2ccc(C#N)c(OC)c2)c1)C1CC1` (single isomer, unassigned) [N-((5-(4-cyano-3-methoxyphenyl)pyridin-3-yl)(cyclopropyl)met] [N-(5-(4-cyano-3-methoxyphenyl)pyridin-3-yl)(cyclopropyl)methyl)ethanesulfonamide], the “Cortisol cell secretion (% inhibition @ 1 μM)” value in assay [2] turned out to be 44%.
